For this test, the target named is TBK1 (Homo sapiens (Human), UniProt Q9UHD2). Description: TBK1 low ATP kinase assay (in vitro assay 1). The test is classed as biochemical. To be noted: in vitro assay 1, read-out: TBK1 low ATP kinase assay IC50.
Chain of TBK1 (Q9UHD2 whole entry): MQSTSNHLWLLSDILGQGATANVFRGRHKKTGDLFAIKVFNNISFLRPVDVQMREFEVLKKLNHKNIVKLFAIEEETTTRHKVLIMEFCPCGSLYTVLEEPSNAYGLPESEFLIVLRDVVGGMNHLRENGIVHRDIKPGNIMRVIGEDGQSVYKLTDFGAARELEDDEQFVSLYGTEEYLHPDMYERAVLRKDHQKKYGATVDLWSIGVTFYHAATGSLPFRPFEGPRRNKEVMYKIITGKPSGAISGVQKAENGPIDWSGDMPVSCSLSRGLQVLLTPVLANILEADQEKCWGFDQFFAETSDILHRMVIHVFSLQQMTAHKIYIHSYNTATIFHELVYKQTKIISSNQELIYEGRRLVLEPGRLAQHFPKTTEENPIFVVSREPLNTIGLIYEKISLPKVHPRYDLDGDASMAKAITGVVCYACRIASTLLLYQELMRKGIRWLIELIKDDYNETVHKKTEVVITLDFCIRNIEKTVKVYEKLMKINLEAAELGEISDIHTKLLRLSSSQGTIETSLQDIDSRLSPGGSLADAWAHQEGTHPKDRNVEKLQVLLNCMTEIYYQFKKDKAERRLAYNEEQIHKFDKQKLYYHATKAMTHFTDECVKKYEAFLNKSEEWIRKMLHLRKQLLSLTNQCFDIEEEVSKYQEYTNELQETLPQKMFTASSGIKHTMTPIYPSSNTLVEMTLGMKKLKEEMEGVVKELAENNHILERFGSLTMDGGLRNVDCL

With `CC(C)(C)OC(=O)N1CCN(Cc2ccnc(Nc3nc4ccc(-c5cc(NCC6CC6)ncn5)cc4[nH]3)c2)CC1` [Example 142.01, tert-butyl 4-({2-[(6-{6-[(cyclopropylmethyl)amino]pyrimidin-4-yl}-1H-benzimidazol-2-yl)amino]pyridin-4-yl}methyl)piperazine-1-carboxylate], the 50% inhibitory concentration (IC50) came out at 7.5 nM. In the case of `CSc1cc(-c2ccc3nc(Nc4cc(CN5CCN(C(=O)CC(F)(F)F)CC5)ccn4)[nH]c3c2)ncn1` [Example 95.01, 3,3,3-trifluoro-1-(4-{[2-({6-[6-(methylsulfanyl)pyrimidin-4-yl]-1H-benzimidazol-2-yl}amino)pyridin-4-yl]methyl}piperazin-1-yl)propan-1-one], the IC50 is 6.6 nM. With `CCOc1cc(-c2ccc3nc(Nc4cc(CN5CCN(C(=O)C6CC6)CC5)ccn4)[nH]c3c2)ncn1` [Example 161.03, cyclopropyl{4-[(2-{[6-(6-ethoxypyrimidin-4-yl)-1H-benzimidazol-2-yl]amino}pyridin-4-yl)methyl]piperazin-1-yl}methanone], the IC50 amounted to 6.7 nM. `O=C(CC(F)(F)F)N1CCN(Cc2ccnc(Nc3nc4ccc(-c5cc(NC6CCC6)ncn5)cc4[nH]3)c2)CC1` [Example 152.02, 1-(4-{[2-({6-[6-(cyclobutylamino)pyrimidin-4-yl]-1H-benzimidazol-2-yl}amino)pyridin-4-yl]methyl}piperazin-1-yl)-3,3,3-trifluoropropan-1-one]: the IC50 turned out to be 0.48 nM. Consider `O=C(CC(F)(F)F)N1CCN(Cc2ccnc(Nc3nc4ccc(-c5cc(N6CCCC6)ncn5)cc4[nH]3)c2)CC1` [Example 93.01, 3,3,3-trifluoro-1-(4-{[2-({6-[6-(pyrrolidin-1-yl)pyrimidin-4-yl]-1H-benzimidazol-2-yl}amino)pyridin-4-yl]methyl}piperazin-1-yl)propan-1-one], for which the IC50 was 2.3 nM. Take `Cc1noc(-c2ccc3nc(Nc4cc(CN5CCN(C(=O)CC(F)(F)F)CC5)c(Br)cn4)[nH]c3c2)n1` [Example 125.02, 1-{4-[(5-bromo-2-{[6-(3-methyl-1,2,4-oxadiazol-5-yl)-1H-benzimidazol-2-yl]amino}pyridin-4-yl)methyl]piperazin-1-yl}-3,3,3-trifluoropropan-1-one]: the IC50 is 650 nM. Regarding `Cn1ccc(-c2ccc3nc(Nc4cc(CN5CCN(C(=O)CC6CC6)CC5)ccn4)[nH]c3c2)n1` [Example 40.02, 2-cyclopropyl-1-{4-[(2-{[6-(1-methyl-1H-pyrazol-3-yl)-1H-benzimidazol-2-yl]amino}pyridin-4-yl)methyl]piperazin-1-yl}ethanone], the IC50 came to 1270 nM.

As for `CC1CC1Cn1cc(-c2ccc3nc(Nc4cc(C(C)N5CCN(C(=O)OC(C)(C)C)CC5)ccn4)[nH]c3c2)cn1` (single isomer, unassigned) [Example 56.01, tert-butyl 4-[(1R or 1S)-1-(2-{[6-(1-{[(1RS,2RS)-2-methylcyclopropyl]methyl}-1H-pyrazol-4-yl)-1H-benzimidazol-2-yl]amino}pyridin-4-yl)ethyl]piperazine-1-carboxylate], the IC50 is 16.5 nM. For `Cc1noc(-c2ccc3nc(Nc4cc(CN5CCN(C(=O)CC6CC6)CC5(C)C)ccn4)[nH]c3c2)n1` [Example 16.04.03, 2-cyclopropyl-1-{3,3-dimethyl-4-[(2-{[6-(3-methyl-1,2,4-oxadiazol-5-yl)-1H-benzimidazol-2-yl]amino}pyridin-4-yl)methyl]piperazin-1-yl}ethanone], the IC50 stood at 378 nM. As for `CC(c1ccnc(Nc2nc3ccc(-c4cnn(CC5CC5)c4)c(Cl)c3[nH]2)c1)N1CCN(C(=O)OC(C)(C)C)CC1` (single isomer, unassigned) [Example 122.01, tert-butyl 4-{(1R or 1S)-1-[2-({7-chloro-6-[1-(cyclopropylmethyl)-1H-pyrazol-4-yl]-1H-benzimidazol-2-yl}amino)pyridin-4-yl]ethyl}piperazine-1-carboxylate], the IC50 turned out to be 9.3 nM.

As usually defined, the IC50 is the concentration at which inhibition is half-maximal.

Source of the values: patent US10894784B2, “Heteroarylbenzimidazole compounds” (BAYER PHARMA AKTIENGESELLSCHAFT, priority 2015, dated 2021).
